Assay in all cases: NCI anticancer screen, dose series, 48 h
Assay [1] relates to A549 NSCLC.
Assay [2] has as its system COLO 205 colon.
Assay [3] concerns HCC-2998 colon.
The test system of assay [4] is NCI-H522 lung.
The test system of assay [5] is OVCAR-8 ovarian.
In assay [6] the test system is RPMI-8226 leukemia.
Assay [7] relates to SF-295 CNS.
Assay [8] relates to SK-OV-3 ovarian.
Assay [9] deals with SW-620 colon.
Assay [10] relates to TK-10 renal.

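Five concentrations, 48 hours, 96-well plates. GI50 is the concentration that inhibits growth by half. At the TGI there is no net growth.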

`COC(=O)c1cc(/C=C/c2ccc(S(N)(=O)=O)cc2)ccc1O`: the GI50 in assay [1] was 29.6 µM; in [2], 29.8 µM; in assay [3], 18 µM; in assay [4], 20.2 µM; in [5], 27.3 µM; in [6], 27.4 µM. The GI50 in [7] was 26.5 µM; in [8], above 100 µM; in [9] it was 25.7 µM; in assay [10] it was 28.1 µM. The TGI in [1] was above 100 µM; in assay [2] it was above 100 µM; in [3] it was 39.7 µM; in assay [4] it was 69.6 µM; in [5] it was above 100 µM; in [6], above 100 µM. Also, the TGI in assay [7], in assay [8], in assay [9] and in assay [10] was above 100 µM each time.

Take `Nc1ccccc1SC1CC(=O)N(c2ccc(Cl)c(Cl)c2)C1=O` (configuration not stated): the GI50 in assay [1] was 19.5 µM; in assay [2] it was 53.1 µM; in assay [3], 59.6 µM; in [4], 19.4 µM; in [5], 20 µM; in assay [6], 10.6 µM. Moreover, the GI50 in [7] was 10.1 µM; in [8], 17.6 µM; in [9], 56.5 µM; in assay [10], 20 µM. Besides, the TGI in assay [1] is above 100 µM; in assay [2] it was above 100 µM; in [3], above 100 µM; in assay [4] it was above 100 µM; in assay [5], 77.8 µM; in assay [6] it was above 100 µM. In addition, the TGI in [7] is above 100 µM; in assay [8] it was 54 µM; in assay [9], above 100 µM; in assay [10], 53 µM.

For `COc1ccc(/C=C(/c2ccccc2)[N+](=O)[O-])cc1`, the GI50 in [1] is 2.13 µM; in [2], 1.79 µM; in assay [3], 1.75 µM; in assay [4] it was 1.65 µM; in assay [5] it was 2.08 µM; in assay [6], 0.486 µM. Moreover, the GI50 is 2.29 µM in assay [7], 2.59 µM in assay [8], 1.34 µM in [9] and 1.98 µM in assay [10]. In addition, the TGI came to 5.12 µM in [1]; 4.07 µM in [2]; 3.22 µM in assay [3]; 4.16 µM in [4]; 6.3 µM in assay [5]; 3.01 µM in assay [6]. For the same molecule, the TGI in assay [7] amounted to 5.22 µM; in assay [8] it was 6.91 µM; in assay [9], 3.18 µM; in assay [10], 3.93 µM.

Regarding `O/C(=C\c1nc2ccccc2nc1NC12CC3CC(CC(C3)C1)C2)c1ccc(Br)cc1`, the TGI in assay [1], in assay [2], in assay [3], in assay [4], in assay [5] and in assay [6] was above 10 µM throughout. For the same molecule, the TGI in assay [7], in assay [8], in [9] and in assay [10] was above 10 µM in each case.

Turning to `O=C1C(=O)N(c2cc(Cl)ccc2Cl)C(=O)C(=O)C1c1nc2ccccc2o1`, the TGI in assay [1], in [2], in assay [3], in [4], in assay [5] and in assay [6] was above 100 µM throughout. Further, the TGI in [7], in assay [8], in assay [9] and in assay [10] was above 100 µM in each case.

On to `CCOC(=O)/C(=C/c1cccc(C#N)c1)N(CC)CC`, for which the TGI in assay [1], in [2], in assay [3], in assay [4], in [5] and in assay [6] was above 100 µM throughout. Moreover, the TGI in [7], in assay [8], in assay [9] and in [10] was above 100 µM in each case.

With `O=C(N/N=C/c1ccc([N+](=O)[O-])o1)c1ccc(O)cc1`, the GI50 was 4.71 µM in assay [1]; 4.63 µM in assay [2]; 4.98 µM in assay [3]; 6.59 µM in assay [4]; 4.86 µM in [5]; 3.35 µM in assay [6]. For the same molecule, the GI50 in assay [7] is 4.26 µM; in [8], 17.5 µM; in assay [9], 3.85 µM; in [10], above 100 µM. Also, the TGI was above 100 µM in [1]; 16.1 µM in assay [2]; above 100 µM in [3]; 26.7 µM in [4]; above 100 µM in assay [5]; 48.3 µM in [6]. Also, the TGI in assay [7], in [8], in assay [9] and in assay [10] was above 100 µM each time.

For the molecule `Cn1c(=O)c2c(ncn2CC(=O)Nc2ccc(-c3ccccc3)nn2)n(C)c1=O`, the GI50 in [1], in assay [2], in assay [3], in [4], in assay [5] and in assay [6] was above 100 µM throughout. Further, the GI50 in assay [7], in assay [8], in assay [9] and in [10] was above 100 µM each time. Moreover, the TGI in assay [1], in [2], in [3], in [4], in assay [5] and in assay [6] was above 100 µM in each case. The TGI in [7], in assay [8], in assay [9] and in assay [10] was above 100 µM throughout.

Consider `CC(C)C1=C2CCC3(C)C(CCC4C5C6OCC5(CCC6(C)C)CCC43C)C2(C)CC1` (configuration not stated), for which the TGI was determined as 43.8 µM in assay [1]; 37.3 µM in [2]; 33.7 µM in [3]; 36.5 µM in [4]; 34.4 µM in [5]; 42.9 µM in [6]. For the same molecule, the TGI in assay [7] is 34.5 µM; in assay [8], above 100 µM; in [9], 50.8 µM; in assay [10], 31 µM.

As for `C=CCN1CC2CON(C(=O)C(OC)(c3ccccc3)C(F)(F)F)C2C1C(C)C` (configuration not stated), the GI50 in assay [1] was 34.6 µg/mL; in assay [2] it was 26 µg/mL; in assay [3], 18.1 µg/mL; in assay [4], 27.5 µg/mL; in [5], 57.7 µg/mL; in assay [6], 9.82 µg/mL. Besides, the GI50 in assay [7] is 35.7 µg/mL; in [8], 40.2 µg/mL; in [9], 62.8 µg/mL; in assay [10], 99.3 µg/mL. Further, the TGI is 38.8 µg/mL in [3], 78.8 µg/mL in assay [4] and 41.7 µg/mL in assay [6].

As to `CC(O)CC(O)(C(F)(F)F)C(F)(F)F` (configuration not stated), the TGI in [1], in assay [2], in assay [3], in assay [4], in assay [5] and in assay [6] was above 10 µM in each case. Further, the TGI in assay [7], in assay [8], in assay [9] and in [10] was above 10 µM throughout.

`N#CC(C(=O)CCC(=O)Nc1cccc(C(F)(F)F)c1)c1ccc(Cl)cc1` (configuration not stated): the TGI in assay [1], in [2], in assay [3], in [4], in assay [5] and in assay [6] was above 100 µM throughout. Moreover, the TGI in assay [7], in assay [8], in assay [9] and in assay [10] was above 100 µM each time.

`CCCCCCCCCCN1CCC(N2CCCCC2)CC1`: the GI50 was 3.74 µM in assay [1]; 1.3 µM in assay [2]; 2.21 µM in assay [3]; 1.93 µM in assay [4]; 3.81 µM in assay [5]; 1.83 µM in assay [6]. The GI50 in assay [7] was 1.96 µM; in assay [8], 2.77 µM; in assay [9], 1.92 µM; in [10], 2.08 µM. Also, the TGI was 12.1 µM in [1]; 2.56 µM in [2]; 5.9 µM in [3]; 5.54 µM in assay [4]; 14 µM in assay [5]; 5.21 µM in assay [6]. Besides, the TGI was 4.2 µM in assay [7], 8.31 µM in assay [8], 3.97 µM in assay [9] and 5.71 µM in [10].

Take `O=C(N/N=C/c1c(Cl)cccc1Cl)c1ccc(C(F)(F)F)nc1Nc1cccc(C(F)(F)F)c1`: the GI50 in assay [1] is 1.54 µM; in assay [2], 0.67 µM; in [3], 3.97 µM; in assay [4], 1.76 µM; in assay [5], 1.07 µM; in assay [6], 0.375 µM. Besides, the GI50 is 1.16 µM in assay [7], 1.69 µM in assay [8], 0.458 µM in assay [9] and 2.87 µM in assay [10]. Further, the TGI was above 36.1 µM in assay [1]; 2.59 µM in [2]; above 100 µM in assay [3]; above 33.6 µM in [4]; above 45.6 µM in assay [5]; 10.5 µM in assay [6]. The TGI is above 29.2 µM in [7], 6.3 µM in [8], above 51.1 µM in [9] and above 91.4 µM in assay [10].

For the molecule `Nc1ccc2nc3n(c2c1)C(=O)c1ccccc1-3`, the TGI in assay [1], in assay [2], in [3], in assay [4], in assay [5] and in assay [6] was above 100 µM each time. The TGI in assay [7], in [8], in assay [9] and in assay [10] was above 100 µM throughout.

`CC1=CC(=O)C(C(O)(C(F)(F)F)C(F)(F)F)C(C)(C)C1` (configuration not stated): the TGI in assay [1], in assay [2], in assay [3], in assay [4], in [5] and in [6] was above 10 µM in each case. The TGI in assay [7], in [8], in assay [9] and in assay [10] was above 10 µM throughout.

As for `CCOC(CN(C)C(=S)Nc1cccc2ccccc12)OCC`, the TGI in [1], in [2], in assay [3], in [4], in [5] and in [6] was above 10 µM each time. For the same molecule, the TGI in assay [7], in assay [8], in assay [9] and in assay [10] was above 10 µM each time.

With `Nc1nc(N)c2cc(CNc3ccc(C(=O)NC(CC(=O)O)C(=O)O)c(Cl)c3)ccc2n1` (configuration not stated), the GI50 was 0.05 µM in assay [1]; 0.462 µM in assay [2]; 342 µM in [4]; 0.05 µM in assay [5]; 2.77 µM in assay [6]; 0.05 µM in assay [7]. Further, the GI50 was 74.7 µM in assay [8], 0.05 µM in assay [9] and above 500 µM in [10]. Also, the TGI in [1] was above 500 µM; in assay [2], above 500 µM; in [3], above 77.5 µM; in assay [4] it was above 500 µM; in assay [5] it was above 500 µM; in [6], above 500 µM. Further, the TGI in assay [7], in assay [8], in [9] and in assay [10] was above 500 µM throughout.

Take `O=C(Nc1ccc(Cl)c(Cl)c1)Nc1ccccc1O`: the GI50 was 6.23 µM in assay [1]; 5.38 µM in assay [2]; 5.56 µM in assay [3]; 2.65 µM in assay [4]; 5.1 µM in [5]; 3.37 µM in [6]. Also, the GI50 in assay [7] was 3.06 µM; in assay [8], 16 µM; in [9], 5.42 µM; in assay [10], 6.41 µM. Besides, the TGI was found to be 22.5 µM in assay [1]; 18.6 µM in [2]; 19.6 µM in assay [3]; 15.5 µM in assay [4]; 32.4 µM in assay [5]; 32.3 µM in [6]. Also, the TGI in [7] is 11.3 µM; in assay [8], 40.8 µM; in assay [9], 19.5 µM; in assay [10], 28 µM.

The record behind these values is PubChem BioAssay (NCI).
